This is an account of results in ChEMBL document CHEMBL5500339, “4-Hydroxy-2-pyridone derivatives with antitumor activity produced by mangrove endophytic fungus Talaromyces sp. CY-3” (Eur J Med Chem, 2024).

The subject of experiment [1] is A549. In words: Cytotoxicity against human A549 cells assessed as reduction in cell viability incubated for 48 hrs by MTT assay. As to conditions: A549, 48 h. It counts as functional, cell-based.
Experiment [2] has as its system MDA-MB-231. Briefly: Cytotoxicity against human MDA-MB-231 cells assessed as reduction in cell viability incubated for 48 hrs by MTT assay. It counts as functional, cell-based. Particulars: MDA-MB-231, 48 h. For orientation: Tetrazolium dyes change colour on reduction, which living cells bring about.
In experiment [3] the test system is MDA-MB-435. In words: Cytotoxicity against human MDA-MB-435 cells assessed as reduction in cell viability incubated for 48 hrs by MTT assay. As to conditions: MDA-MB-435, 48 h. It counts as functional, cell-based.
Experiment [4] concerns SNB-19. Briefly: Cytotoxicity against human SNB-19 cells assessed as reduction in cell viability incubated for 48 hrs by MTT assay. It counts as functional, cell-based. Particulars: SNB-19, 48 h.
The test system of experiment [5] is HCT-116. In words: Cytotoxicity against human HCT-116 cells assessed as reduction in cell viability incubated for 48 hrs by MTT assay. It counts as functional, cell-based. Particulars: HCT-116, 48 h.
Experiment [6] concerns PC-3. Briefly: Cytotoxicity against human PC-3 cells assessed as reduction in cell viability incubated for 48 hrs by MTT assay. It counts as functional, cell-based. Particulars: PC-3, 48 h.
For experiment [7], the system named is A549. In words: Induction of cell cycle arrest in human A549 cells assessed as accumulation of cells at G1/G0 phase at 2 uM incubated for 24 hrs by flow cytometric analysis (reference value: 51.49 %). It counts as functional. In general terms: Flow cytometry measures light scatter and fluorescence of single cells or particles in a stream.
Experiment [8] has as its system A549. Briefly: Induction of cell cycle arrest in human A549 cells assessed as accumulation of cells at S phase at 2 uM incubated for 24 hrs by flow cytometric analysis (reference value: 31.31 %). It counts as functional.
Experiment [9] deals with A549. In words: Induction of cell cycle arrest in human A549 cells assessed as accumulation of cells at G2/M phase at 2 uM incubated for 24 hrs by flow cytometric analysis (reference value: 17.2 %). It counts as functional.
In experiment [10] the test system is NCI-H1703. Briefly: Induction of cell cycle arrest in human NCI-H1703 cells assessed as accumulation of cells at G1/G0 phase at 2 uM incubated for 24 hrs by flow cytometric analysis (reference value: 42.06 %). It counts as functional.
The test system of experiment [11] is NCI-H1703. In words: Induction of cell cycle arrest in human NCI-H1703 cells assessed as accumulation of cells at S phase at 2 uM incubated for 24 hrs by flow cytometric analysis (reference value: 28.06 %). It counts as functional.
The subject of experiment [12] is NCI-H1703. In words: Induction of cell cycle arrest in human NCI-H1703 cells assessed as accumulation of cells at G2/M phase at 2 uM incubated for 24 hrs by flow cytometric analysis (reference value: 29.88 %). It counts as functional.

Broadly, the IC50 is the concentration that inhibits the measured activity by half. `CC[C@H](C)C[C@@H](C)/C=C(\C)[C@@H]1O[C@H](c2c(O)c(-c3ccc(O)cc3)cn(C)c2=O)CC[C@H]1CO`: the half-inhibitory concentration (IC50) in experiment [1] is 8.41 µM; in [2], greater than 50 µM; in experiment [3] it was 2.3 µM; in experiment [4], greater than 50 µM; in [5], 10.5 µM; in experiment [6], greater than 50 µM.

As for `CC(=O)c1c(C)c2cnc(Nc3ccc(N4CCNCC4)cn3)nc2n(C2CCCC2)c1=O` [PALBOCICLIB], the Activity in experiment [7] came out at 89.43%; in [8] it was 5.87%; in experiment [9] it was 4.7%; in experiment [10] it was 72.21%; in experiment [11] it was 6.88%; in experiment [12] it was 20.91%.

Consider `C/C=C/[C@@H]1Oc2c(-c3ccccc3)cn(O)c(=O)c2[C@@H]2[C@H]1CCC[C@H]2C`, for which the IC50 was determined as 32.7 µM in experiment [1]; 20.1 µM in experiment [2]; 20.3 µM in experiment [3]; 20.3 µM in experiment [4]; 14.4 µM in [5]; 49.1 µM in experiment [6].

With `CC[C@H](C)C[C@@H](C)/C=C(\C)[C@H]1O[C@@H](c2c(O)c(-c3ccccc3)c[nH]c2=O)CC=C1C`, the IC50 was 3.81 µM in experiment [1]; 5.28 µM in experiment [2]; 9.02 µM in [3]; 6.76 µM in experiment [4]; 1.76 µM in [5]; 2.18 µM in [6].

As to `C/C=C/[C@@H]1Oc2c(-c3ccccc3)c[nH]c(=O)c2[C@@H]2[C@H]1CCC[C@H]2C`, the IC50 in experiment [1] was greater than 50 µM; in experiment [2], greater than 50 µM; in [3] it was 29.5 µM; in experiment [4], 13.4 µM; in experiment [5], 16.8 µM; in experiment [6], 36.1 µM.

As for `CC[C@H](C)C[C@@H](C)/C=C(\C)[C@@H]1O[C@H](c2c(O)c(-c3ccccc3)cn(C)c2=O)CC[C@H]1C`, the IC50 was found to be 9.51 µM in experiment [1]; 7.84 µM in experiment [2]; 24.6 µM in [3]; 5.76 µM in experiment [4]; 2.45 µM in experiment [5]; 16.3 µM in experiment [6].

For `CC[C@H](C)C[C@@H](C)/C=C(\C)[C@@H]1O[C@H](c2c(O)c(-c3ccccc3O)cn(C)c2=O)CC[C@H]1C`, the IC50 is greater than 50 µM in experiment [1]; 12.7 µM in experiment [2]; 6.95 µM in experiment [3]; greater than 50 µM in [4]; 7.57 µM in experiment [5]; 18.6 µM in [6].

Take `CC[C@H](C)C[C@@H](C)/C=C(\C)[C@@H]1O[C@H](c2c(O)c(-c3ccc(O)cc3)cn(C)c2=O)CC[C@H]1C`: the IC50 in experiment [1] was found to be 14.9 µM; in experiment [2], 14.9 µM; in experiment [3] it was 9.41 µM; in [4] it was 9.04 µM; in [5] it was 7.74 µM; in experiment [6], 43 µM.

Take `CC[C@H](C)C[C@@H](C)/C=C(\C)[C@@H]1O[C@H](c2c(O)c(-c3ccc(O)cc3)c[nH]c2=O)CC[C@H]1C`: the IC50 in experiment [1] is 3.46 µM; in experiment [2], 4.4 µM; in experiment [3], 10 µM; in experiment [4], greater than 50 µM; in experiment [5], 2.51 µM; in [6] it was 6.65 µM.

For `CC[C@H](C)C[C@@H](C)/C=C(\C)[C@@H]1O[C@H](c2c(O)c(-c3ccccc3)c[nH]c2=O)CC[C@H]1C`, the 50% inhibitory concentration (IC50) was 3.89 µM in experiment [1]; 5 µM in experiment [2]; 7.29 µM in experiment [3]; greater than 50 µM in experiment [4]; greater than 50 µM in [5]; 11.4 µM in [6].

For the molecule `CC[C@H](C)C[C@@H](C)/C=C(\C)[C@@H]1O[C@H](c2c(O)c(-c3ccc(O)cc3)cn(C)c2=O)CC=C1C`, the half-inhibitory concentration (IC50) in experiment [1] was 48.9 µM; in [2], 43.1 µM; in experiment [3], 34.9 µM; in experiment [4] it was 40.4 µM; in experiment [5], 29.2 µM; in experiment [6], greater than 50 µM.

Turning to `CC[C@H](C)C[C@@H](C)/C=C(\C)[C@@H]1O[C@H](c2c(O)c(-c3ccc(O)cc3)cn(C)c2=O)CC[C@]1(C)O`, the IC50 was 11.1 µM in experiment [1]; 8.49 µM in [2]; 6.15 µM in experiment [3]; greater than 50 µM in experiment [4]; 10.5 µM in experiment [5]; 8.1 µM in [6].
